What all share (assay type): cell-based
In assay [1] the target is T1, AKT2 (Homo sapiens, UniProt P31751).
T1 construct: expressed in transfected cells; host or cells: HEK293
The assay is described as follows: Live cell AKT2 target engagement by NanoBRET competitive probe displacement. The settings on record: HEK293 cells transfected with kinase-NanoLuciferase fusion, 2 h at 37° C. As for the experimental part:
(§1) Determining Live Cell AKT1 E17K, AKT1 WT, and AKT2 Target Engagement by NanoBRET Competitive Probe Displacement.
(§2) Live cell target engagement assays were performed as described (Vasta, J. D. et al. Cell Chem Biol 2018, 25(11), 206-214). Briefly, HEK293 cells were transfected with plasmids encoding kinase-NanoLuciferase fusion proteins overnight. Cells were then treated with serial dilutions of compound and an ˜EC50 concentration of fluorescently-tagged ATP-competitive tracer (Promega). After incubation for 2 h at 37° C., luciferase substrate and extracellular luciferase inhibitor were added to all wells, and luminescent intensity at 460 nm and 600 nm were measured on a multimode plate-reader. The ratio of E600/E460 was calculated to give the tracer engagement signal (BRET). IC50 values were calculated by fitting BRET values to a log(inhibitor) vs. response Hill equation.
On the technique in general: Bioluminescence resonance energy transfer reports proximity on the nanometre scale.

In assay [2] the target is T2, AKT1 E17K (Homo sapiens, UniProt P31749, E17K).
T2 construct: expressed in transfected cells; host or cells: HEK293
The assay is described as follows: Live cell AKT1 E17K target engagement by NanoBRET competitive probe displacement. The settings on record: HEK293 cells transfected with kinase-NanoLuciferase fusion, 2 h at 37° C. As for the experimental part: as §1, §2

The subject of assay [3] is LAPC4 prostate cancer cells. The assay can be described thus: Antiproliferative effects in LAPC4 cells (CellTiter Glo). Particulars: LAPC4 cells (AKT1 E17K allele), read-out: LAPC4 proliferation IC50. As for the experimental part: Antiproliferative Effects in LAPC4 Cells.
LAPC4 prostate cancer cells (Klein, K. A. et al. Nat Med 1997, 3, 402-408), which express the AKT1 E17K allele, were grown in IMDM media (Hyclone) supplemented with 12% FBS+1% P/S. To assess compound effects on growth, 1,000 cells/well were seeded in 384 well assay plates, incubated with compound dilutions dissolved in DMSO. After 72 h, intracellular ATP content was assessed with CellTiter Glo reagent (Promega) according to the manufacturer's instructions. IC50 values were calculated by fitting luminescence values to a log(inhibitor) vs. response Hill equation.
In general terms: In ATP-based viability assays light output follows the ATP content of the culture.

Assay [4] concerns the target T3, AKT1 WT (Homo sapiens, UniProt P31749).
T3 construct: expressed in transfected cells; host or cells: HEK293
The assay is described as follows: Live cell AKT1 WT target engagement by NanoBRET competitive probe displacement. Particulars: HEK293 cells transfected with kinase-NanoLuciferase fusion, 2 h at 37° C. On the procedure: as §1, §2

Read-outs that look alike come from different tables or passages of the source.

T2 sequence (P31749 whole entry E17K): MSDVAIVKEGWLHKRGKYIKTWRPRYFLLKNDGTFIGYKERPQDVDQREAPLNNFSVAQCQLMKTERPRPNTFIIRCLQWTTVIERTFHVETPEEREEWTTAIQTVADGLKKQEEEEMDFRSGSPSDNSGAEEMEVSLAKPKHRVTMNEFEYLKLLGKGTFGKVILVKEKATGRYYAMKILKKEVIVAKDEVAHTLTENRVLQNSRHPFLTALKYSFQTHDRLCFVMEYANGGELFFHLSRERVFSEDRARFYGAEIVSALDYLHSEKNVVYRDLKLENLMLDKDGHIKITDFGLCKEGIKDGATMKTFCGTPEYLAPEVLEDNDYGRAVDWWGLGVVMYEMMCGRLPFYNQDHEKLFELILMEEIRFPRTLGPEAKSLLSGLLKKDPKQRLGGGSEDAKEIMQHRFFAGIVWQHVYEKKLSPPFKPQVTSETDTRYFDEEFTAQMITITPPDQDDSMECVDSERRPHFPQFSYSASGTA
T3 sequence (P31749 whole entry): as the sequence (P31749 whole entry E17K) above, with K17E counted along it
T1 sequence (P31751 whole entry): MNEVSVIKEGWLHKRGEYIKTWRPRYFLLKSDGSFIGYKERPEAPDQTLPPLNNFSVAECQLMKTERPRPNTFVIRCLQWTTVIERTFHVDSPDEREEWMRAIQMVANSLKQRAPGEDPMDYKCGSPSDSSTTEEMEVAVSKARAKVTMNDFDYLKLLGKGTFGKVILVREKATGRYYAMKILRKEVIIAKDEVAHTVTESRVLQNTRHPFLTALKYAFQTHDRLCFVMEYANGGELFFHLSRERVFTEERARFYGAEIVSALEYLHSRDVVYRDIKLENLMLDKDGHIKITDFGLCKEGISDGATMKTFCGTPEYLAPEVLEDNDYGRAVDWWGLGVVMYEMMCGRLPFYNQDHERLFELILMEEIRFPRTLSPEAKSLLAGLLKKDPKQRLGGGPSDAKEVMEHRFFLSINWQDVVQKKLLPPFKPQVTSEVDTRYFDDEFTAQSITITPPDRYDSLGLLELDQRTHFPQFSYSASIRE

For the molecule `C=CC(=O)N1CCC(N[C@@H]2c3ccc(-n4c(-c5ccccc5)nc5ccc(-n6cccn6)nc54)cc3CC2F)CC1C(F)F` (single isomer, unassigned) [Example 328, 1-((2*,4*)-2-(difluoromethyl)-4-(((1R,2*)-2-fluoro-5-(2-phenyl-5-(1H-pyrazol-1-yl)-3H-imidazo[4,5-b]pyridin-3-yl)-2,3-dihydro-1H-inden-1-yl)amino)piperidin-1-yl)prop-2-en-1-one], the IC50 came out at 90.3 nM in assay [1] and 17.7 nM in assay [2].
For the molecule `C=CC(=O)N1CCC(N[C@H]2CCc3cc(-n4c(-c5cccnc5N)nc5ccc(-n6cccn6)nc54)ccc32)CC1CC#N` (single isomer, unassigned) [Example 339, 2-((2*,4*)-1-acryloyl-4-(((S)-5-(2-(2-aminopyridin-3-yl)-5-(1H-pyrazol-1-yl)-3H-imidazo[4,5-b]pyridin-3-yl)-2,3-dihydro-1H-inden-1-yl)amino)piperidin-2-yl)acetonitrile], the IC50 in assay [1] came out at 78.8 nM; in assay [2], 32.7 nM.
With `C=CC(=O)N1CCC(N[C@@H]2c3ccc(-n4c(-c5ccccc5F)nc5ccc(-n6cccn6)nc54)cc3CC2F)C[C@H]1C` (single isomer, unassigned) [Example 316, 1-((2R,4*)-4-(((1R,2*)-2-fluoro-5-(2-(2-fluorophenyl)-5-(1H-pyrazol-1-yl)-3H-imidazo[4,5-b]pyridin-3-yl)-2,3-dihydro-1H-inden-1-yl)amino)-2-methylpiperidin-1-yl)prop-2-en-1-one], the IC50 was 540 nM in assay [3] (72 h), 112 nM in assay [1] and 19.2 nM in assay [2].
For `C=CC(=O)N1C[C@H]2COC[C@@H](C1)C2N[C@H]1CCc2cc(-n3c(-c4cccnc4N)nc4ccc(C5CC5)nc43)ccc21` (single isomer, unassigned) [Example 172, 1-((1R,5S,9*)-9-(((S)-5-(2-(2-aminopyridin-3-yl)-5-cyclopropyl-3H-imidazo[4,5-b]pyridin-3-yl)-2,3-dihydro-1H-inden-1-yl)amino)-3-oxa-7-azabicyclo[3.3.1]nonan-7-yl)prop-2-en-1-one] the same measures were 510 nM, 211 nM and 50.9 nM.
For `C=CC(=O)N1CCC(N[C@@H]2c3ccc(-n4c(-c5ccccc5F)nc5ccc(-n6cccn6)nc54)cc3CC2F)C[C@H]1C` (single isomer, unassigned) [Example 318, 1-((2R,4*)-4-(((1R,2*)-2-fluoro-5-(2-(2-fluorophenyl)-5-(1H-pyrazol-1-yl)-3H-imidazo[4,5-b]pyridin-3-yl)-2,3-dihydro-1H-inden-1-yl)amino)-2-methylpiperidin-1-yl)prop-2-en-1-one] the same measures were 626 nM, 111 nM and 29.7 nM.
On to `C=CC(=O)N1CCC(N[C@@H]2CCc3cc(-n4c(-c5cccnc5N)nc5ccc(-n6cccn6)nc54)ccc3C2)CC1` [Example 295, 1-(4-{[(2R)-6-[2-(2-aminopyridin-3-yl)-5-(pyrazol-1-yl)imidazo[4,5-b]pyridin-3-yl]-1,2,3,4-tetrahydronaphthalen-2-yl]amino}piperidin-1-yl)prop-2-en-1-one], for which the IC50 in assay [4] turned out to be 23.5 nM; in assay [3] (Homo sapiens, LAPC4, 72 h) it was 17.9 nM; in assay [2] it was 9.37 nM.
Consider `C=CC(=O)N1CCC(N[C@H]2CCc3cc(-n4c(-c5cccnc5N)nc5cc(-c6ccccn6)cnc54)ccc32)CC1` [Example 269, 1-(4-{[(1S)-5-[2-(2-aminopyridin-3-yl)-6-(pyridin-2-yl)imidazo[4,5-b]pyridin-3-yl]-2,3-dihydro-1H-inden-1-yl]amino}piperidin-1-yl)prop-2-en-1-one], for which the IC50 in assay [4] was 2120 nM; in assay [3] (Homo sapiens, LAPC4, 72 h), 5390 nM; in assay [2], 247 nM.
As for `C=CC(=O)N1CCC(N[C@@H]2c3ccc(-n4c(-c5cccnc5N)nc5ccc(-n6cccn6)nc54)cc3CC2F)CC1C(F)F` (single isomer, unassigned) [Example 301, 1-((2*,4*)-4-(((1R,2*)-5-(2-(2-aminopyridin-3-yl)-5-(1H-pyrazol-1-yl)-3H-imidazo[4,5-b]pyridin-3-yl)-2-fluoro-2,3-dihydro-1H-inden-1-yl)amino)-2-(difluoromethyl)piperidin-1-yl)prop-2-en-1-one], the IC50 in assay [4] came to 105 nM; in assay [3] (72 h) it was 172 nM; in assay [2] it was 8.86 nM.
`C=CC(=O)N1CCC(N[C@H]2CCc3cc(-n4c(-c5cccnc5N)nc5ccc(N6CCCC6)nc54)ccc32)CC1` [Example 170, 1-(4-{[(1S)-5-[2-(2-aminopyridin-3-yl)-5-(pyrrolidin-1-yl)imidazo[4,5-b]pyridin-3-yl]-2,3-dihydro-1H-inden-1-yl]amino}piperidin-1-yl)prop-2-en-1-one]: the IC50 amounted to 114 nM in assay [4]; 160 nM in assay [3] (Homo sapiens, LAPC4, 72 h); 12.5 nM in assay [2].
Take `C=CC(=O)N1CCC(N[C@H]2CCc3cc(-n4c(-c5cccnc5N)nc5ccc(-n6cccn6)nc54)ccc32)C[C@@H]1C(F)F` (single isomer, unassigned) [Example 213, 1-((2R,4*)-4-(((S)-5-(2-(2-aminopyridin-3-yl)-5-(1H-pyrazol-1-yl)-3H-imidazo[4,5-b]pyridin-3-yl)-2,3-dihydro-1H-inden-1-yl)amino)-2-(difluoromethyl)piperidin-1-yl)prop-2-en-1-one]: the IC50 in assay [4] amounted to 13.8 nM; in assay [3] (72 h), 9.69 nM; in assay [2], 4.87 nM.
In the case of `C=CC(=O)N1CCC(N[C@H]2CCc3cc(-n4c(-c5cccnc5N)nc5cc(-n6cccn6)cnc54)ccc32)CC1` [Example 217, 1-(4-{[(1S)-5-[2-(2-aminopyridin-3-yl)-6-(pyrazol-1-yl)imidazo[4,5-b]pyridin-3-yl]-2,3-dihydro-1H-inden-1-yl]amino}piperidin-1-yl)prop-2-en-1-one], the IC50 in assay [4] is 1870 nM; in assay [3] (Homo sapiens, LAPC4, 72 h), 3470 nM; in assay [2], 321 nM.
For `C=CC(=O)N1CCC(N[C@@H]2c3c(F)cc(-n4c(-c5cccnc5N)nc5ccc(-n6cccn6)nc54)cc3CC2F)CC1` (single isomer, unassigned) [Example 342, 1-(4-(((1R,2*)-5-(2-(2-aminopyridin-3-yl)-5-(1H-pyrazol-1-yl)-3H-imidazo[4,5-b]pyridin-3-yl)-2,7-difluoro-2,3-dihydro-1H-inden-1-yl)amino)piperidin-1-yl)prop-2-en-1-one], the results for the IC50 in assay [1] and in assay [2] were 194 nM and 23.9 nM, respectively.
For `C=CC(=O)N1CCC(N[C@@H]2c3ccc(-n4c(-c5ccccc5)nc5ccc(-n6ccc(F)n6)nc54)cc3CC2F)CC1` (stereo partly drawn) [Example 332, 1-(4-(((1R,2*)-2-fluoro-5-(5-(3-fluoro-1H-pyrazol-1-yl)-2-phenyl-3H-imidazo[4,5-b]pyridin-3-yl)-2,3-dihydro-1H-inden-1-yl)amino)piperidin-1-yl)prop-2-en-1-one] the same measures were 481 nM and 27.9 nM.
Take `C=CC(=O)N1CCN(CC2CCc3cc(-n4c(-c5cccnc5N)nc5ccc(-n6cccn6)nc54)ccc32)CC1` (centres unmarked) [Example 174, 1-(4-((5-(2-(2-aminopyridin-3-yl)-5-(1H-pyrazol-1-yl)-3H-imidazo[4,5-b]pyridin-3-yl)-2,3-dihydro-1H-inden-1-yl)methyl)piperazin-1-yl)prop-2-en-1-one]: the IC50 in assay [4] turned out to be 65.5 nM; in assay [3] (Homo sapiens, LAPC4, 72 h) it was 89 nM; in assay [2] it was 8.46 nM.
In the case of `C=CC(=O)N1CCC(N[C@H]2CCc3cc(-n4c(-c5cccnc5N)nc5ccc(-n6cccn6)nc54)ccc32)C[C@@H]1C(F)F` (single isomer, unassigned) [Example 212, 1-((2R,4*)-4-(((S)-5-(2-(2-aminopyridin-3-yl)-5-(1H-pyrazol-1-yl)-3H-imidazo[4,5-b]pyridin-3-yl)-2,3-dihydro-1H-inden-1-yl)amino)-2-(difluoromethyl)piperidin-1-yl)prop-2-en-1-one], the IC50 in assay [4] came out at 36.1 nM; in assay [3] (72 h) it was 36.6 nM; in assay [2], 6.9 nM.
The matching figures for `C=CC(=O)N1CCN(N(C)C2CCc3cc(-n4c(-c5cccnc5N)nc5ccc(-n6cccn6)nc54)ccc32)CC1` (single isomer, unassigned) [Example 179, 1-(4-{[(1*)-5-[2-(2-aminopyridin-3-yl)-5-(pyrazol-1-yl)imidazo[4,5-b]pyridin-3-yl]-2,3-dihydro-1H-inden-1-yl](methyl)amino}piperazin-1-yl)prop-2-en-1-one]: 2890 nM, 3520 nM and 203 nM.

The values are drawn from patent US12570655B2, “Cysteine covalent modifiers of AKT1 and uses thereof” (Terremoto Biosciences, Inc., priority 2023, dated 2026).
